According to US10047164B2, “Methods and compositions for the treatment of pancreatic cancer” (Opsona Therapeutics Ltd., priority 2012, dated 2018):

What was measured:
[1] = system: pancreatic tumours in KPC mice; settings: Science 2009; cited from earlier work
[2] = system: advanced pancreatic cancer; settings: patients with advanced pancreatic cancer; cited from earlier work
[3] = system: KPC cell line orthotopic pancreatic tumours; settings: treatment at the induction of tumours; over 49 days (FIG. 1); OPN-305 10 mg/kg i.v. once weekly, Gemcitabine 100 mg/kg i.p. twice weekly, Abraxane 10 mg/kg i.v. day 0
Source text: A preclinical mouse model of pancreatic cancer was established where a KPC cell line derived from the genetically engineered ‘KPC’ mouse with pancreas-specific mutant Kras and mutant TP53 genetic background (LSL-KrasG12D; p53R172H, Pdx1-Cre) backcrossed several generations with C57Bl/6 mice was implanted as allograft, orthotopically in the pancreas of C57bl/6 (B6) mice. In brief, a subcutaneous tumour was first established by injecting 2.5 million cells under the skin of C57Bl/6 mice. Ten days later, the tumour was excised and chopped into smaller pieces, roughly 1 mm^3 in size, and implanted orthotopically into pancreas of C57Bl/6 mice. For orthotopic implantation into the pancreas, each mouse was anesthetized with 2.5% Avertin, 0.013 ml/g B.W. All surgical procedures were performed under aseptic conditions with use of sterile gloves and autoclaved instruments. The skin was disinfected with betadine followed by alcohol and this procedure was repeated twice. A left lateral oblique incision was made through the skin and then through the body wall just below the stomach. […] The growth of orthotopic tumours were measured over the period of 12-16 weeks by non-invasive ultrasound (Vevo2100, VisualSonic). […] The orthotopically implanted tumours were measured by ultrasound 5 days post-surgery and randomized into various treatment arms as below: • 1. […]

In the case of `Nc1ccn([C@@H]2O[C@H](CO)[C@@H](O)C2(F)F)c(=O)n1` [Gemcitabine], the “tumours demonstrating a change in growth kinetics after treatment” value [1] is given as 12% and the “improvement in median survival duration” value [2] is given as 5 week.
In the case of “OPN-305: humanized version of T2.5, a murine IgG1 anti-TLR2 antibody; described in WO2011/003925”, the tumour volume [3] is reported as “reduced tumour volume to a greater extent than treatment with a combination of Gemcitabine+Abraxane”.
